In US20240271180A1, “METHOD FOR DETECTING CONTAMINATING LIPASE ACTIVITY” (BOEHRINGER INGELHEIM INTERNATIONAL GMBH, priority 2020, published 2024):

Key:
[1] = test system: hydrolytic activity of a drug product sample (Product D); assay: 4-MUD lipase assay with Orlistat; type: biochemical; settings: Orlistat 7.3 nM-20 μM, 30 μM 4-MUD, AMT buffer pH 5.5
[2] = test system: hydrolytic activity responsible for polysorbate degradation in a drug product sample (Product D); assay: PS20 degradation in drug product, HPLC-CAD; settings: 1 μM Orlistat, 0.2 mg/mL PS20, RT, pH 5.5, up to 56 days, vs control (DMSO only)
[3] = test system: lipase activity in drug substance samples (Product G, B, F) and UF/DF sample of Product D; assay: 4-MUD lipase assay with or without CHAPS; type: biochemical; settings: 10 mM CHAPS (above CMC) vs without, 30 μM 4-MUD, pH 5.5
Experimental: First, a surfactant was tested above its CMC (critical micelle concentration). Therefore 10 mM CHAPS were added to the assay. […] The samples tested were drug substance samples comprising Product G, Product B, Product F and a sample following ultrafiltration/diafiltration of Product D, each added at 72 μL per well. […] Without being bound by theory it is hypothesized that a surfactant creates an environment that promotes lipase activity by allowing the rearrangement and opening of the lid or flap, which has been described to cover the active site (Grochulski P, Li Y, Schrag J D, et al. Protein Sci 1994; 3:82-91 and Grochulski P, Bouthillier F, Kazlauskas R J, et al. Biochemistry 1994; 33:3494-500). Therefore, a concentration of 10 mM CHAPS in the final reaction-mix was selected.

[4] = test system: hydrolytic activity of PPL and in BDS B and BDS E; assay: Comparison of surfactants in 4-MUD lipase assay; type: biochemical; settings: 10 mM CHAPS vs 0.25% Triton X-100 vs 0.25% Triton X-100 and 0.125% gum arabicum, pH 5.5
Experimental: Therefore, hydrolytic activity of PPL (0.024 mg/ml in the reaction mixture) and in BDS B and BDS E (2.4 mg/ml in the reaction mixture) was measured in ATM buffer, pH 5.5, with either 10 mM CHAPS, 0.25% Triton X-100 or 0.25% Triton X-100 and 0.125% gum arabicum. […] Gum arabicum is an emulsifier and no effect of gum arabicum on the activity has been observed in any of the experiments.

[5] = derivable from literature; cited from earlier work
[6] = Auto-hydrolysis of 4-MU esters; type: physicochemical; settings: 30 μM, AMT assay buffer, 10 mM CHAPS, pH 5.5, 1800 seconds; compared to e.g. butyrate (4-MUB)
[7] = test system: hydrolytic activity of an exemplary drug product sample; settings: NaCl 7.8125-1000 mM, 30 μM 4-MUD, AMT buffer without NaCl, pH 5.5
Experimental: Therefore, the influence of the ionic strength on the measured hydrolytic activity was tested. Hydrolytic activity of an exemplary drug product sample was measured in the presence of varying concentrations of NaCl (1000 mM-7.8125 mM).

[8] = molecular target: T1, PPL (Sus scrofa, UniProt P00591); settings: Jahn et al.; cited from earlier work
T1 sequence (P00591 1-450): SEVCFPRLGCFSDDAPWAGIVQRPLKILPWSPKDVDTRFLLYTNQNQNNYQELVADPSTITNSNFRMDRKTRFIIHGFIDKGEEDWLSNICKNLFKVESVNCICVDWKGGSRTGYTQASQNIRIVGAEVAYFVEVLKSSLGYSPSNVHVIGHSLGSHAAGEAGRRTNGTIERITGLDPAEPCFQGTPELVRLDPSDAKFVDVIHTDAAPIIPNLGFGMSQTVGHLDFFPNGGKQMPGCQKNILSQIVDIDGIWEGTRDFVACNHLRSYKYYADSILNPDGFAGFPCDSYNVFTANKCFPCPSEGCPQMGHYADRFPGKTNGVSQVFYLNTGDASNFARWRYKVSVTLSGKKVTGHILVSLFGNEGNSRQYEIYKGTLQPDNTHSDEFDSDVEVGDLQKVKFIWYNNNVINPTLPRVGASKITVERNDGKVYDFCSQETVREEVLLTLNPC

CCCCCCCCCCC[C@@H](C[C@@H]1OC(=O)[C@H]1CCCCCC)OC(=O)[C@H](CC(C)C)NC=O [Orlistat]
inhibition of lipase activity [1]: inhibited lipase activity in a concentration dependent manner
degradation of PS20 [2]: reduced degradation of PS20

C[C@H](CCC(=O)NCCC[N+](C)(C)CCCS(=O)(=O)[O-])[C@H]1CC[C@H]2[C@@H]3[C@H](O)C[C@@H]4C[C@H](O)CC[C@]4(C)[C@H]3C[C@H](O)[C@]12C [CHAPS, 3-[(3-cholamidopropyl)dimethylammonio]-1-propanesulfonate]
effect on lipase hydrolysis [3]: lipase hydrolysis was increased
hydrolytic activity compared between surfactants [4]: outperforms Triton X-100 and Triton X-100 and gum arabicum
critical micelle concentration (CMC) [5]: about 6 mM

C[C@H](CCC(=O)NCCC[N+](C)(C)CC(O)CS(=O)(=O)[O-])[C@H]1CC[C@H]2[C@@H]3[C@H](O)C[C@@H]4C[C@H](O)CC[C@]4(C)[C@H]3C[C@H](O)[C@]12C (stereo partly shown) [CHAPSO, 3-([3-Cholamidopropyl)dimethylammonio]-2-hydroxy-1-propanesulfonate]
critical micelle concentration (CMC) [5]: about 8 mM

CCCCCCCCCC(=O)Oc1ccc2c(C)cc(=O)oc2c1 [4-MUD, 4-methylumbelliferyl decanoate]
auto-hydrolysis [6]: better resistance to auto-hydrolysis

[Cl-].[Na+] [NaCl]
NaCl concentration at which lipase activity decreased [7]: ≥ 250 mM

CCCCCCCCCCCC[N+](C)(C)CCCS(=O)(=O)[O-] [Zwittergent 3-12, n-Dodecyl-N,N-dimethyl-3-ammonio-1-propanesulfonate]
critical micelle concentration (CMC) [5]: 2 to 4 mM

polyethylene glycol tert-octylphenyl ether [Triton X-100]
effect on PPL activity [8]: de-activating effect
